In patent US6384186B2 (priority 1995, dated 2002) one finds Efficacy of omphalotin data, which are given here for one molecule.

Square brackets hold non-standard residues; d marks the D form. Peptide text beside a SMILES is read from it. NMeI = CC[CH](C)[CH](NC)C(=O)O; NMeV = CN[CH](C(=O)O)C(C)C; Sar = CNCC(=O)O

`CCC(C)C1NC(=O)C(C(C)C)N(C)C(=O)C(Cc2c[nH]c3ccccc23)NC(=O)CN(C)C(=O)C(C(C)CC)N(C)C(=O)C(C(C)C)NC(=O)CN(C)C(=O)C(C(C)CC)N(C)C(=O)C(C(C)C)N(C)C(=O)CN(C)C(=O)C(C(C)C)N(C)C(=O)C(C(C)C)N(C)C1=O` (centres unmarked) [omphalotin] (cyclo([Sar][NMeV][NMeI][Sar]V[NMeI][Sar]W[NMeV]I[NMeV][NMeV]); configuration not given here): the Efficacy of omphalotin with Fusarium graminearum came to 23%; in the assay with Pyricularia oryzae it was 70%.
